The IC50 is the concentration at which inhibition is half-maximal. Read a low IC50 as inhibition by little substance.

The subject of assay [1] is HepG2 (liver hepatocellular cells). The assay is described as follows: MTS reduction assay, cytotoxicity on HepG2 cells. It is filed as cell-based, human. Conditions: HepG2, 72 hours, average of three repeats. As to the method:
(§1) MCF-7 (human breast adenocarcinoma), NCI-H460 (non-small-cell lung cancer) and HepG2 (liver hepatocellular cells) were incubated in a modified Dulbecco's Eagle's medium with 10% FBS and nonessential amino acid ([…], Inc) in an incubator with 37° C., 5% CO2/Air. Human cancer cell lines were planted in 96-well plates, and each well which contained the 100 μl medium were planted one of MCF-7 and NCI-H460 with a cell amount of 6500, 2500 and 7500. After overnight incubation, each cell line was administered at least 8 testing compounds with different concentrations individually, and subsequently the cell lines were incubated in the incubator for 72 hours. According to a method of MTS reduction assay, 5-(3-carboxymethoxyphenyl)-2-(4,5-dimethylthiazoyl)-3-(4-sulfophenyl)tetrazolium salt (MTS) was applied on estimating alive cell numbers, and 0.1% DMSO (Promega, Madison, Wis., USA) was a control group because DMSO controlled a result of percentage, the result could be a dose-response curve of IC50 value. […] The IC50 value was an average of three times repeats. The 10000/well HepG2 cells were planted on a 96-well plate and were gone through the same experiences.

In assay [2] the test system is MCF-7 (human breast adenocarcinoma). Briefly: MTS reduction assay, cytotoxicity on MCF-7 cells. It counts as cell-based. Particulars: average of three repeats. On the procedure: as §1
A general note: Formazan colour is commonly taken as a measure of viable cells.

Assay [3] relates to NCI-H460 (non-small-cell lung cancer). Briefly: MTS reduction assay, cytotoxicity on NCI-H460 cells. It counts as cell-based, human. Conditions: NCI-H460, 72 hours, average of three repeats. As to the method:
as §1

Some results are limits rather than exact numbers.

For `COC1C(OC2CCC3(C=O)C4CCC5(C)C(C6=CC(=O)OC6)CCC5(O)C4CCC3(O)C2)OC(C)C(O)C1O` (stereo not drawn) [epi-reevesioside F (7), epi-reevesioside F], the half-maximal inhibitory concentration (IC50) in assay [1] is 996 ± 92.6 nM; in assay [2] (MCF-7, 72 hours), 34.1 ± 5.5 nM; in assay [3] it was 10.4 ± 0.5 nM.

Regarding `C[C@@H]1C[C@H]2OCO[C@H]2[C@H](O[C@H]2CC[C@]3(C=O)[C@H]4CC[C@]5(C)[C@@H](C6=CC(=O)OC6)CC[C@]5(O)[C@@H]4CC[C@]3(O)C2)O1` [reevesioside A (1), reevesioside A], the IC50 turned out to be 368 ± 29.9 nM in assay [1]; 63.2 ± 2.1 nM in assay [2] (MCF-7, 72 hours); 19.3 ± 0.5 nM in assay [3].

Turning to `COc1cc2c3c(c4cc(OC)c(OC)cc4c2cc1OC)CN1CCC[C@@H]1C3` [tylophorine, reference compound], the IC50 turned out to be 215 ± 14 nM in assay [1] (Homo sapiens); 236 ± 11 nM in assay [2] (Homo sapiens, MCF7, MCF-7, 72 hours); 233 ± 24 nM in assay [3] (Homo sapiens).

reevesioside B [reevesioside B (2)]: the 50% inhibitory concentration (IC50) in assay [1] was found to be 4760 ± 202 nM; in assay [2] (MCF-7, 72 hours) it was 3520 ± 72 nM; in assay [3], 431 ± 45.1 nM.

On to reevesioside C [reevesioside C (3)], for which the half-inhibitory concentration (IC50) came out at 3740 ± 261 nM in assay [1]; 2040 ± 173 nM in assay [2] (MCF-7, 72 hours); 208 ± 15.6 nM in assay [3].

reevesioside D [reevesioside D (4)]: the half-inhibitory concentration (IC50) is above 500000 nM in assay [1]; 36400 ± 2580 nM in assay [2] (MCF-7, 72 hours); 3900 ± 316 nM in assay [3].

Regarding reevesioside E [reevesioside E (5)], the IC50 in assay [1] was determined as 40500 ± 6430 nM; in assay [2] (MCF-7, 72 hours) it was 11800 ± 2240 nM; in assay [3] it was 1770 ± 35.4 nM.

In the case of reevesioside F [reevesioside F (6)], the IC50 in assay [1] came out at 836 ± 33.2 nM; in assay [2] (MCF-7, 72 hours), 72 ± 8.1 nM; in assay [3] it was 20.3 ± 0.4 nM.

The values above are taken from patent publication US8658605B2, “Bioactivity composition of Reevesia formosana” (priority 2011, dated 2014).
